Test results published in patent publication US20050004092A1, “Penem derivatives and antimicrobial agent containing the same” (DAIICHI SUNTORY PHARMA CO., LTD., priority 1995, published 2005).
Converted amounts (≈) assume the structure as drawn. Where two headings read alike, the source gives them in different places.

Key:
Assay in all cases: antibacterial activity (MIC), standard in vitro dilution test
[1] = tested on: Escherichia coli NIHJ JC-2 strain; format: cell-based; conditions: Escherichia coli
From the text: (§1) With respect to certain compounds (I) of the present invention, their general antibacterial activities and their antibacterial activities (MIC) against various methicillin-resistant strains of Staphylococcus aureus (methicillin-resistant Staphylococcus aureus: MRSA) were investigated. The results will be shown next.
(§2) Of the investigations, the general antibacterial activities were investigated by a standard in vitro dilution test.
(§3) As test bacteria, Staphylococcus aureus 209P JC-1, Escherichia coli NIHJ JC-2 and MRSAs were used.

[2] = tested on: Staphylococcus aureus 209P JC-1 strain; format: cell-based; conditions: Staphylococcus aureus, 209P, read-out: MIC, Staphylococcus aureus 209P JC-1 strain
From the text: as §1, §2, §3

[3] = tested on: MRSA 31 high-resist. (IPM resist.); format: cell-based, Staphylococcus aureus; conditions: Staphylococcus aureus, MRSA, read-out: MIC, MRSA 31 high-resist. (IPM resist.)
From the text: as §1, §2, §3

[4] = tested on: MRSA 33 high-resist. (IPM resist.); format: cell-based, Staphylococcus aureus; conditions: Staphylococcus aureus, MRSA, read-out: MIC, MRSA 33 high-resist. (IPM resist.)
From the text: as §1, §2, §3

[5] = NIHJJC2, test bacterium strain 10^5 cfu/ml, read-out: MIC, Escherichia coli NIHJ JC-2 strain
[6] = test bacterium strain 10^5 cfu/ml

SMILES | MIC [1, 5] | MIC [2, 6] | MIC [3, 6] | MIC [4, 6] | MIC ([1]; NIHJJC2, read-out: MIC, Escherichia coli NIHJ JC-2 strain) | MIC [2] | MIC [3] | MIC [4]
CC[C@H](O)[C@@H]1C(=O)N2C(C(=O)O)=C(S[C@H]3CCN(C(C)=N)C3)S[C@H]12 [Ex. 103, (5R,6R)-2-((S)-1-(1-iminoethyl)-pyrrolidin-3-yl)thio-6-((S)-1-hydroxypropyl)-penem-3-carboxylic acid] | 0.39 µg/mL (≈ 1.05 µM) | 0.1 µg/mL (≈ 0.269 µM) | 3.13 µg/mL (≈ 8.43 µM) | 3.13 µg/mL (≈ 8.43 µM) | – | – | – | –
CC[C@H](O)[C@@H]1C(=O)N2C(C(=O)O)=C(S[C@H]3CCN(C(C)C(=O)c4ccccc4)C3)S[C@H]12 (some centres unmarked) [Ex. 117] | – | – | – | – | 1.56 µg/mL (≈ 3.37 µM) | 0.1 µg/mL (≈ 0.216 µM) | 6.25 µg/mL (≈ 13.5 µM) | 6.25 µg/mL (≈ 13.5 µM)
CC[C@H](O)[C@@H]1C(=O)N2C(C(=O)O)=C(SCCNC(=N)c3ccccc3)S[C@H]12 [Ex. 132, (5R,6R)-2-(2-(α-iminobenzyl)-aminoethyl)thio-6-((S)-1-hydroxypropyl)penem-3-carboxylic acid] | 1.56 µg/mL (≈ 3.83 µM) | 0.1 µg/mL (≈ 0.245 µM) | 6.25 µg/mL (≈ 15.3 µM) | 6.25 µg/mL (≈ 15.3 µM) | – | – | – | –
CC[C@H](O)[C@@H]1C(=O)N2C(C(=O)O)=C(Sc3nc(-c4ccccc4)cs3)S[C@H]12 [Ex. 152, (5R,6R)-6-((S)-1-hydroxypropyl)-2-(4-phenylthiazol-2-yl)thiopenem-3-carboxylic acid] | 50 µg/mL (≈ 119 µM) | 0.05 µg/mL (≈ 0.119 µM) | 3.13 µg/mL (≈ 7.44 µM) | 3.13 µg/mL (≈ 7.44 µM) | – | – | – | –
CC[C@H](O)[C@@H]1C(=O)N2C(C(=O)O)=C(SCCN(C)CC(=O)c3ccccc3)S[C@H]12 [Ex. 142, (5R,6R)-6-((S)-1-hydroxypropyl)-2-(2-(N-methyl-N-phenacylamino)ethyl)thiopenem-3-carboxylic acid] | 0.78 µg/mL (≈ 1.79 µM) | 0.1 µg/mL (≈ 0.229 µM) | 6.25 µg/mL (≈ 14.3 µM) | 6.25 µg/mL (≈ 14.3 µM) | – | – | – | –
CC[C@H](O)[C@@H]1C(=O)N2C(C(=O)O)=C(SC3CCCN(Cc4ccccc4)C3)S[C@H]12 (some centres unmarked) [Ex. 125*^4] | 12.5 µg/mL (≈ 28.8 µM) | 0.2 µg/mL (≈ 0.46 µM) | 6.25 µg/mL (≈ 14.4 µM) | 6.25 µg/mL (≈ 14.4 µM) | – | – | – | –
CC[C@H](O)[C@]1(C(=O)O)C(=O)N2C=C(S[C@H]3CCN(Cc4ccccc4)C3)S[C@@H]21 [Ex. 44, (5R,6R)-2-((S)-1-benzylpyrrolidin-3-yl)thio-6-((S)-1-hydroxypropyl)penem-6-carboxylic acid] | 3.13 µg/mL (≈ 7.44 µM) | 0.1 µg/mL (≈ 0.238 µM) | 3.13 µg/mL (≈ 7.44 µM) | 3.13 µg/mL (≈ 7.44 µM) | – | – | – | –
CC[C@H](O)[C@@H]1C(=O)N2C(C(=O)O)=C(SCCC(=O)Nc3ccccc3)S[C@H]12 [Ex. 134, (5R,6R)-6-((S)-1-hydroxypropyl)-2-(2-phenylaminocarbonylethyl)thiopenem-3-carboxylic acid] | 12.5 µg/mL (≈ 30.6 µM) | 0.39 µg/mL (≈ 0.955 µM) | 6.25 µg/mL (≈ 15.3 µM) | 6.25 µg/mL (≈ 15.3 µM) | – | – | – | –
CC[C@H](O)[C@@H]1C(=O)N2C(C(=O)O)=C(SC3CCN(c4ccccc4)C3)S[C@H]12 (stereo partly drawn) [Ex. 105, (5R,6R)-6-((S)-1-hydroxypropyl)-2-(1-phenylpyrrolidin-3-yl)thiopenem-3-carboxylic acid] | > 12.5 µg/mL | 0.1 µg/mL (≈ 0.246 µM) | 1.56 µg/mL (≈ 3.84 µM) | 1.56 µg/mL (≈ 3.84 µM) | – | – | – | –

The next lines start with results.

MIC [1, 5] | MIC [2, 6] | MIC [3, 6] | MIC [4, 6] | SMILES | MIC ([1]; NIHJJC2, read-out: MIC, Escherichia coli NIHJ JC-2 strain) | MIC [2] | MIC [3] | MIC [4]
3.13 µg/mL (≈ 8.88 µM) | 0.2 µg/mL (≈ 0.567 µM) | 3.13 µg/mL (≈ 8.88 µM) | 3.13 µg/mL (≈ 8.88 µM) | CC[C@H](O)[C@@H]1C(=O)N2C(C(=O)O)=C(SCc3ccncc3)S[C@H]12 [Ex. 224] | – | – | – | –
6.25 µg/mL (≈ 15.3 µM) | 0.1 µg/mL (≈ 0.245 µM) | 3.13 µg/mL (≈ 7.68 µM) | 3.13 µg/mL (≈ 7.68 µM) | CC[C@H](O)[C@@H]1C(=O)N2C(C(=O)O)=C(S[C@H]3CCN(c4ccccn4)C3)S[C@H]12 [Ex. 204] | – | – | – | –
3.13 µg/mL (≈ 6.57 µM) | 0.1 µg/mL (≈ 0.21 µM) | 6.25 µg/mL (≈ 13.1 µM) | 6.25 µg/mL (≈ 13.1 µM) | CC[C@H](O)[C@@H]1C(=O)N2C(C(=O)O)=C(S[C@H]3CCN(CCCC(=O)c4ccccc4)C3)S[C@H]12 [Ex. 215] | – | – | – | –
0.39 µg/mL (≈ 0.792 µM) | 0.1 µg/mL (≈ 0.203 µM) | 6.25 µg/mL (≈ 12.7 µM) | 6.25 µg/mL (≈ 12.7 µM) | CC[C@H](O)[C@@H]1C(=O)N2C(C(=O)O)=C(S[C@H]3CCN(CC(=O)c4ccc5c(c4)OCO5)C3)S[C@H]12 [Ex. 207] | – | – | – | –
25 µg/mL (≈ 61.2 µM) | 0.39 µg/mL (≈ 0.955 µM) | 6.25 µg/mL (≈ 15.3 µM) | 6.25 µg/mL (≈ 15.3 µM) | CC[C@H](O)[C@@H]1C(=O)N2C(C(=O)O)=C(S[C@H]3CCN(c4ncccn4)C3)S[C@H]12 [Ex. 209] | – | – | – | –
0.78 µg/mL (≈ 2 µM) | 0.1 µg/mL (≈ 0.257 µM) | 6.25 µg/mL (≈ 16 µM) | 6.25 µg/mL (≈ 16 µM) | CC[C@H](O)[C@@H]1C(=O)N2C(C(=O)O)=C(S[C@H]3CCN(C(=N)CF)C3)S[C@H]12 [Ex. 253] | – | – | – | –
1.56 µg/mL (≈ 4.05 µM) | 0.2 µg/mL (≈ 0.519 µM) | 6.25 µg/mL (≈ 16.2 µM) | 6.25 µg/mL (≈ 16.2 µM) | CCC(=N)N1CC[C@H](SC2=C(C(=O)O)N3C(=O)[C@@H]([C@@H](O)CC)[C@H]3S2)C1 [Ex. 250] | – | – | – | –
0.78 µg/mL (≈ 2.03 µM) | 0.2 µg/mL (≈ 0.52 µM) | 6.25 µg/mL (≈ 16.3 µM) | 6.25 µg/mL (≈ 16.3 µM) | CC[C@H](O)[C@@H]1C(=O)N2C(C(=O)O)=C(S[C@H]3CCN(CC4CC4)C3)S[C@H]12 [Ex. 230] | – | – | – | –
